# Where a name gives a salt, the structure may show the parent alone.
# Biological target: T1, ENaC (Homo sapiens, UniProt P37088+P51168+P51170)
# T1 construct: host or cells: primary human bronchial epithelial cells (HBECs) differentiated at an air-liquid interface
# T1 sequence (P37088 1-669): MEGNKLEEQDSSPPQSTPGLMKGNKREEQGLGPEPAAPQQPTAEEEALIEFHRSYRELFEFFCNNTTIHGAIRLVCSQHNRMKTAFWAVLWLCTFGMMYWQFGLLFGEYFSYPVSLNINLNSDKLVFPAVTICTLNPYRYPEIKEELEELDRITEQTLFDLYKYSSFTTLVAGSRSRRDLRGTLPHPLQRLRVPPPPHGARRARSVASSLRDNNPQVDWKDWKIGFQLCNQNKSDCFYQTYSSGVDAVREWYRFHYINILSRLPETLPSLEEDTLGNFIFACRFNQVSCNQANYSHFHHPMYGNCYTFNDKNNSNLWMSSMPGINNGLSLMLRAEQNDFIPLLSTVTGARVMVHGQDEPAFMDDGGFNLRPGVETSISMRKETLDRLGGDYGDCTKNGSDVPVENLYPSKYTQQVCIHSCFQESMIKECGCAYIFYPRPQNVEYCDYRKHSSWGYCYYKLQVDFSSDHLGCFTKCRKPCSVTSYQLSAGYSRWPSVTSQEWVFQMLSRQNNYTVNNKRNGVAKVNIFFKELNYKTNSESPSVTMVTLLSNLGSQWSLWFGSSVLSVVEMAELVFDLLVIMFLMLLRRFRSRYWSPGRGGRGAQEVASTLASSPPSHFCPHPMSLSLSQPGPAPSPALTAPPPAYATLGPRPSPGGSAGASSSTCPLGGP
# T1 sequence (P51168 1-640): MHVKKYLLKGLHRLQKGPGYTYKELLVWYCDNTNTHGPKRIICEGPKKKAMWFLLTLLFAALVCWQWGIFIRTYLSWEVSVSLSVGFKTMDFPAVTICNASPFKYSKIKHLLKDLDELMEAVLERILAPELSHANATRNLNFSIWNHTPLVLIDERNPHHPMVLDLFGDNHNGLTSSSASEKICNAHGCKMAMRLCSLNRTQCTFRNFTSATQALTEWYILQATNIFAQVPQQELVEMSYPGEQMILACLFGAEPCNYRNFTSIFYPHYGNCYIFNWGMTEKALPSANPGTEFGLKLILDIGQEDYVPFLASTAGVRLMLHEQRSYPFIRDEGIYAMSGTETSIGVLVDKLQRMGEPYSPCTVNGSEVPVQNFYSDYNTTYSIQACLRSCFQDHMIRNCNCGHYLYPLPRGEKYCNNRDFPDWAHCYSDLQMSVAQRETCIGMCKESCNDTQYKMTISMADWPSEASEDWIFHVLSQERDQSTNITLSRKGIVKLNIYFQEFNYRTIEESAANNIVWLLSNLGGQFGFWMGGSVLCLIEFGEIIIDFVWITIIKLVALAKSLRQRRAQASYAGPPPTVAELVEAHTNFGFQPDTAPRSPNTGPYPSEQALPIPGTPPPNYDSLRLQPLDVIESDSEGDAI
# T1 sequence (P51170 1-649): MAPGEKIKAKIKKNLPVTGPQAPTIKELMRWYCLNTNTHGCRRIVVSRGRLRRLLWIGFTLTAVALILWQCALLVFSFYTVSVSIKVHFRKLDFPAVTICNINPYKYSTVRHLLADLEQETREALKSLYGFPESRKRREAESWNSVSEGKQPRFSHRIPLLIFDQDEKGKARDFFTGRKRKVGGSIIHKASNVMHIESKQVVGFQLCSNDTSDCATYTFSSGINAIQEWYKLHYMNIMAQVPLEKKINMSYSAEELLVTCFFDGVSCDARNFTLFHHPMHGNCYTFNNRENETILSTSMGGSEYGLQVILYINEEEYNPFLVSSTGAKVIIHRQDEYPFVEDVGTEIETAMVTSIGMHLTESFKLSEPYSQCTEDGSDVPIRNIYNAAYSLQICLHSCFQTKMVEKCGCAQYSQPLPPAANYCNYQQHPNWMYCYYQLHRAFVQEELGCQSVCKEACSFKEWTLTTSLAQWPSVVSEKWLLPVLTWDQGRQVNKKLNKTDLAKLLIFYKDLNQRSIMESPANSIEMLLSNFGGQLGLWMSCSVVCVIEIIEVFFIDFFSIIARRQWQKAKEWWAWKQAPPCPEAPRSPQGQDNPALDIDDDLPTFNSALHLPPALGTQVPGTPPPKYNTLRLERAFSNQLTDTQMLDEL
# Assay: Short circuit current assay to determine ENaC blocker potency in human bronchial epithelial cells
# Assay type: cell-based
# Conditions: 50% inhibition of total amiloride-sensitive ISC, HBECs, apical addition; read-out: Averages. ENaC Ic50 μm Avg
# Method: Example 27—Short Circuit Current Assay to Determine ENaC Blocker Potency in Human Bronchial Epithelial Cells
# Human bronchial epithelial cells (HBECs) (Lonza, UK) were cultured using a modification of the method described by Coote et al, (2008). Cells were seeded into plastic T-75 flasks and grown in Bronchial Epithelial Cell Growth Medium (BEGM) (Lonza, UK) supplemented with bovine pituitary extract (52 ng/mL), hydrocortisone (0.5 μg/mL), human recombinant Epidermal Growth Factor (0.5 ng/mL), epinephrine (0.5 ng/mL), transferrin (10 ng/mL), insulin (5 ng/mL), retinoic acid (0.1 ng/mL), triiodothyronine (6.5 ng/mL), gentamycin (50 μg/mL) and amphotericin-B (50 ng/mL). Medium was changed every 48 hours until cells were 90% confluent. Cells were then passaged and seeded (8.25×10^5 cells/insert) onto polycarbonate Snapwell™ inserts (Costar, UK) in differentiation media containing 50% DMEM in BGEM with the same supplements as above but without triiodothyronine and a final retinoic acid concentration of 50 nM (all-trans retinoic acid; Sigma-Aldrich, UK). Cells were maintained submerged for the first 7 days in culture after which time they were exposed to an apical air interface for the remainder of the culture period. From the first day of establishment of an ALI, HBEC were fed with a DMEM:HAMS F-12 (1:1) media containing 2% Ultroser G (Pall BioSepra, France) with gentamycin (50 μg/mL) and amphotericin B (50 ng/mL). Cells were used for short-circuit current assay between days 14-21 after the establishment of the ALI. At all stages of culture, cells were maintained at 37′C in 5% CO2 in an air incubator.
# Short-Circuit Current (ISC) Measurements
# Snapwell inserts were mounted in Costar Vertical Diffusion Chambers (Costar, UK) and were bathed with continuously gassed Ringer solution (5% CO2 in O2; pH 7.4) maintained at 37° C. containing (in mM): 120 NaCl, 25 NaHCO3, 3.3 KH2PO4, 0.8 K2HPO4, 1.2 CaCl2, 1.2 MgCl2 and 10 glucose. The solution osmolarity was always between 280-300 mOsm/kg H2O for all physiological salt solutions used. Cells were voltage clamped to 0 mV (model EVC4000, WPI). Transepithelial resistance (RT) was measured by applying a 2 mV pulse at 30 s intervals and calculating RT by Ohm's law. Data were recorded using a PowerLab workstation (ADInstruments, UK).
# ENaC blocker compounds were added to the apical chamber from a 1000-fold stock solution (prepared in DMSO) to achieve a cumulative concentration response in terms of the inhibition of the basal ISC. At the completion of the concentration response, a supra-maximal concentration of amiloride (10 μM) was added. The concentration of test compound that induced a 50% inhibition of the total amiloride-sensitive ISC (IC50) was calculated using GraphPad Prism v6.05.
row,SMILES,IC50 [nM]
1,"CCn1c(CNC(=O)c2nc(Br)cnc2N)[n+](C)c2ccc(C(F)(F)F)cc21.[I-] [Example 13, 2-{[(3-amino-6-bromopyrazin-2-yl)formamido]methyl}-1-ethyl-3-methyl-6-(trifluoromethyl)-1H-1,3-benzodiazol-3-ium iodide]",4
2,"CCn1c(CNC(=O)c2nc(Br)cnc2N)[n+](CCOCCOCCO)c2ccc(OC)cc21.O=C[O-] [Example 4, 2-{[(3-amino-6-bromopyrazin-2-yl)formamido]methyl}-1-ethyl-3-{2-[2-(2-hydroxyethoxy)ethoxy]ethyl}-6-methoxy-1H-1,3-benzodiazol-3-ium formate]",4
3,"CCn1c(CNC(=O)c2nc(Br)cnc2N)[n+](CC)c2ccc(OCCNC(=O)OC(C)(C)C)cc21.O=C[O-] [Example 24, 2-{[(3-amino-6-bromopyrazin-2-yl)formamido]methyl}-6-(2-{[(tert-butoxy)carbonyl]amino}ethoxy)-1,3-diethyl-1H-1,3-benzodiazol-3-ium formate]",2
4,"CCn1c(CNC(=O)c2nc(Br)cnc2N)[n+](CC)c2ccc(C(=O)OC)cc21.[I-] [Example 15, 2-{[(3-amino-6-bromopyrazin-2-yl)formamido]methyl}-1,3-diethyl-6-(methoxycarbonyl)-1H-1,3-benzodiazol-3-ium iodide]",2
5,"CCn1c(CNC(=O)c2nc(Br)cnc2N)[n+](CC)c2ccc(-c3cnn(C4CCNCC4)c3)cc21.Cl.[I-] [Example 21, 2-{[(3-amino-6-bromopyrazin-2-yl)formamido]methyl}-1,3-diethyl-6-[1-(piperidin-4-yl)-1H-pyrazol-4-yl]-1H-1,3-benzodiazol-3-ium hydrochloride iodide]",1
6,"CCn1c(CNC(=O)c2nc(Br)cnc2N)[n+](CC)c2ccc(OCCN)cc21.Cl.[Cl-] [Example 25, 2-{[(3-Amino-6-bromopyrazin-2-yl)formamido]methyl}-6-(2-aminoethoxy)-1,3-diethyl-1H-1,3-benzodiazol-3-ium hydrochloride chloride]",2
7,"CCn1c(CNC(=O)c2nc(C#N)cnc2N)[n+](CC)c2ccc(OC)cc21 [Example 26, 2-{[(3-amino-6-cyanopyrazin-2-yl)formamido]methyl}-1,3-diethyl-6-methoxy-1H-1,3-benzodiazol-3-ium formate]",8
8,"CCn1c(CNC(=O)c2nc(Br)cnc2N)[n+](CC)c2ccc(C(=O)N[C@@H]3CCOC3=O)cc21 [Example 17, 2-{[(3-amino-6-bromopyrazin-2-yl)formamido]methyl}-1,3-diethyl-6-{[(3R)-2-oxooxolan-3-yl]carbamoyl}-1H-1,3-benzodiazol-3-ium formate]",3
9,"CCn1c(CNC(=O)c2nc(Br)cnc2N)[n+](C)c2ccc(Cl)cc21.O=CO.O=C[O-] [Example 11, 2-{[(3-amino-6-bromopyrazin-2-yl)formamido]methyl}-6-chloro-1-ethyl-3-methyl-1H-1,3-benzodiazol-3-ium formic acid formate]",2
10,"CCn1c(CNC(=O)c2nc(Br)cnc2N)[n+](CC)c2ccc(OC)cc21.O=C[O-] [Example 2, 2-{[(3-amino-6-bromopyrazin-2-yl)formamido]methyl}-1,3-diethyl-6-methoxy-1H-1,3-benzodiazol-3-ium formate]",1
11,"CCn1c(CNC(=O)c2nc(Br)cnc2N)[n+](C)c2ccc(OC(F)(F)F)cc21.O=C[O-] [Example 14, 2-{[(3-amino-6-bromopyrazin-2-yl)formamido]methyl}-1-ethyl-3-methyl-6-(trifluoromethoxy)-1H-1,3-benzodiazol-3-ium formate]",3
12,"CCn1c(CNC(=O)c2nc(Br)cnc2N)[n+](CC)c2ccc(-c3cnn(C4CCN(C[C@H](O)[C@@H](O)[C@H](O)[C@H](O)CO)CC4)c3)cc21.O=CO.[Cl-] [Example 23, 2-{[(3-amino-6-bromopyrazin-2-yl)formamido]methyl}-1,3-diethyl-6-(1-{1-[(2S,3R,4R,5R)-2,3,4,5,6-pentahydroxyhexyl]piperidin-4-yl}-1H-pyrazol-4-yl)-1H-1,3-benzodiazol-3-ium formic acid chloride]",2
13,"CCn1c(CNC(=O)c2nc(Br)cnc2N)[n+](Cc2ccccc2)c2ccc(C(F)(F)F)cc21.O=C[O-] [Example 19, 2-{[(3-Amino-6-bromopyrazin-2-yl)formamido]methyl}-3-benzyl-1-ethyl-6-(trifluoromethyl)-1H-1,3-benzodiazol-3-ium formate]",4
14,"CCn1c(CNC(=O)c2nc(Br)cnc2N)[n+](CC)c2ccc(C(=O)N[C@H]3CCOC3=O)cc21 [Example 18, 2-{[(3-amino-6-bromopyrazin-2-yl)formamido]methyl}-1,3-diethyl-6-{[(3S)-2-oxooxolan-3-yl]carbamoyl}-1H-1,3-benzodiazol-3-ium formate]",4
15,"CCc1cnc(N)c(C(=O)NCc2n(CC)c3cc(OC)ccc3[n+]2C)n1.[I-] [Example 8, 2-{[(3-amino-6-ethylpyrazin-2-yl)formamido]methyl}-1-ethyl-6-methoxy-3-methyl-1H-1,3-benzodiazol-3-ium iodide]",224
